Literature values in paper PMC6738096 (British Journal of Cancer, 2019).

How the values were obtained:
[1] = cited from earlier work
ALK-positive NSCLC = system: ALK-positive NSCLC; set-up: method as in not given; conditions: ALK pre-treated setting, post crizotinib; ref not given; cited from earlier work

SMILES	QTc prolongation in clinical trials [1]	Objective response rate (ALK-positive NSCLC)	Patients with QTc > 500 ms ([1]; among 919 patients) [%]	Patients with ΔQTc of > 60 ms ([1]; among 919 patients) [%]
COc1cc(N2CCC(N3CCN(C)CC3)CC2)ccc1Nc1ncc(Cl)c(Nc2ccccc2P(C)(C)=O)n1 [brigatinib]	QTc was not prolonged to any clinically relevant extent	45–54%	–	–
Cc1cc(Nc2ncc(Cl)c(Nc3ccccc3S(=O)(=O)C(C)C)n2)c(OC(C)C)cc1C1CCNCC1 [ceritinib]	–	55%	1.3	6
C[C@H]1Oc2cc(cnc2N)-c2c(nn(C)c2C#N)CN(C)C(=O)c2ccc(F)cc21 [lorlatinib]	–	48%	–	–
